According to patent US20090124587A1, “METHODS FOR TREATING CANCER USING 17alpha-HYDROXYLASE/C17,20-LYASE INHIBITORS” (priority 2007, published 2009):

Columns and labels:
Type in all cases: in vivo, human
[1] = Pharmacokinetic study of abiraterone in hormone refractory prostate cancer patients, oral doses 250-2000 mg/day, fasted
Procedure: A group of 15 subjects was divided into five groups. Members of each group were orally administered doses of 250 mg/day, 500 mg/day, 750 mg/day, 1000 mg/day or 2000 mg/day once a day. Before administration the subjects had fasted. PK blood samples were measured at 1, 2, 4, 6, 8, 24, and 72 hours post dose.
(§1) To measure the amount of abiraterone and abiraterone acetate in the samples, these compounds were extracted from 100 uL human plasma using solid phase extraction (SPE) with cation mixed-mode polymer cartridges. Extracts were evaporated to dryness before reconstitution and analysis. Chromatography was carried out using a Luna™ C5 column (5 μm, 50 mm×2.1 mm id) with a gradient mobile phase consisting of 10 mM ammonium acetate and 2% propan-2-ol in acetonitrile. The flow rate was 0.2 mL/min and the run time 10.5 minutes. Abiraterone and abiraterone acetate were ionized using the electrospray interface in positive ion mode. Detection of analytes was via tandem mass spectrometry (MS/MS) in the multiple reaction monitoring (MRM) mode.
PK modeling was conducted using a non-compartmental model, extra vascular input for plasma with WinNonLin Software®. Pharmacokinetic parameters estimated in the model include: […]

[2] = Safety, dose limiting toxicity in phase I/II study; conditions: all subjects tested, Group 1 (250-2000 mg/day) and Group 2 (1000 mg/day)
Procedure: An open label phase I/II study was carried out to evaluate the safety, efficacy and recommended dose of abiraterone acetate in prostate cancer patients. Pharmacokinetics (PK), pharmacodynamics and antitumor efficacy were also studied.
(§2) The effect of abiraterone acetate on the blood levels of prostate-specific antigen (PSA) was evaluated. Two groups of subjects were involved in the study. The first group (“Group 1”) was comprised of the 18 subjects discussed above as well as 12 additional subjects that were administered 1000 mg/day of abiraterone acetate. All 30 of the subjects in Group 1 were castrated and hormone refractory; however, none of the 30 had been treated with chemotherapy, i.e., they were chemotherapy-naïve. The second group (“Group 2”) was comprised of 13 subjects, all of whom were castrated and hormone refractory. Also, these 13 subjects had been administered docetaxel and were chemotherapy refractory. The subjects in Group 2 were administered 1000 mg/day of abiraterone acetate. The subjects in both groups were administered abiraterone acetate until they progressed.

[3] = Food effect PK study, two single oral 1000 mg doses of abiraterone acetate, fed (high fat) vs fasted
Procedure: as §1
PK modeling was conducted using a non-compartmental model, extra vascular input for plasma with WinNonLin Software®. Pharmacokinetic parameters estimated in the model include:
Based on the above results, the PK parameters for a single dose of 1000 mg/day of abiraterone acetate were further studied in the 3 subjects who were administered the 1000 mg/day dose and in 3 additional subjects. Two single oral doses (1000 mg) of abiraterone acetate were administered separately, one concomitantly with food of high fat content and one in fasting state. The first single dose was administered on day −9 with PK blood samples being taken at 1, 2, 4, 6, 8, 24, 48 and 72 hours post dose. The second single dose was administered on day −3 with PK blood samples being taken at 1, 2, 4, 6, 8, 24 and 48 hours post dose for analysis.

[4] = tested on: prostate-specific antigen (PSA); assay: Effect of abiraterone acetate on blood levels of prostate-specific antigen (PSA)
Procedure: as §2
60% of the Group 1 subjects (18 of 30) experienced a decline of PSA levels of greater than 50% for more than 10 days. A third of these subjects experienced PSA declines of greater than 90% for more than 10 days. FIGS. 9A-9D show the effect of the administration of abiraterone acetate on PSA levels for certain of the Group 1 subjects that were administered 250 mg/day, 500 mg/day, 750 mg/day and 1000 mg/day of abiraterone acetate. With respect to the Group 2 subjects, 7 of the 13 subjects experienced a decline in PSA levels of about 50% for more than 10 days.

[5] = tested on: alkaline phosphatase (ALP); assay: Blood plasma levels of alkaline phosphatase; conditions: some subjects
Procedure: (§3) FIGS. 15A-15H show the blood plasma level of certain steroids over time in subjects that were administered 250 mg/day, 500 mg/day and 750 mg/day of abiraterone acetate.

[6] = tested on: circulating tumor cells (CTC); assay: Number of circulating tumor cells after administration; conditions: certain patients after administration
tumor lesions = assay: Effect on tumor mass size, CT scans (RECIST), bone disease, nodes and metastases
Procedure: as §2
The effect of the administration of abiraterone acetate on tumor mass size was observed.

[7] = Analgesic use in Group 1 and Group 2 subjects; conditions: subjects of both groups
[8] = tested on: androgenic steroids, such as testosterone; assay: Blood plasma levels of androgenic steroids; conditions: some subjects
Procedure: as §3

CC(=O)O[C@H]1CC[C@@]2(C)C(=CCC3C2CC[C@]2(C)C(c4cccnc4)=CCC32)C1 (stereo partly shown) [abiraterone acetate, 3-acetoxy-17-(3-pyridyl)androsta-5,16-diene]
drug levels at 1000 mg compared with 500 mg ([1]; 1000 mg vs 500 mg Abiraterone acetate): higher | drug levels measured at 1000 mg compared with 750 mg fasting ([1]; 1000 mg vs 750 mg in a fasting state): not higher | dose limiting toxicity (DLTs) [2]: No dose limiting toxicity (DLTs) were observed | AUC at 2000 mg relative to 1000 mg (doubling) ([3]; extended cohort, fasted group): no longer | AUC at 2000 mg relative to 1000 mg ([3]; extended cohort, fed group): approximate doubling of AUC | abiraterone acetate detected in vivo ([3]; following an oral dose of abiraterone acetate at 1000 mg): no abiraterone acetate was detected | mean drug exposure (AUC) at 2000 mg relative to 1000 mg ([3]; previously, in both dosing regimes (fed and fasted)): approximately double | subjects with decline of PSA levels of greater than 50% for more than 10 days ([4]; Group 1: 30 castrated, hormone refractory, chemotherapy-naïve subjects (18 of 30)): 60% | subjects with PSA declines of greater than 90% for more than 10 days ([4]; Group 1, fraction of these subjects): A third | subjects with decline in PSA levels of about 50% for more than 10 days ([4]; Group 2: 13 castrated, hormone refractory, docetaxel-treated chemotherapy refractory subjects, 1000 mg/day): 7 of the 13 | blood plasma levels of alkaline phosphatase (ALP) [5]: declines | number of circulating tumor cells (CTC) [6]: declines | partial radiological responses as measured by CT scans (RECIST) (tumor lesions; 20 evaluable Group 1 subjects with measurable tumor lesions): 11 subjects | subjects with ongoing stable bone disease (tumor lesions; Group 1): Seven | subjects with regressing bone disease (tumor lesions; Group 1): three | pelvic nodes (tumor lesions; subject administered 250 mg/day (FIG. 10)): regression of pelvic nodes | mediastinal nodes (tumor lesions; subject administered 500 mg/day (FIG. 13)): regression of mediastinal nodes | pelvic nodes (tumor lesions; subject administered 750 mg/day (FIG. 11)): regression of pelvic nodes | pulmonary metastases (tumor lesions; subject administered 750 mg/day (FIG. 14)): regression of pulmonary metastases | pelvic nodes (tumor lesions; subject administered 1000 mg/day (FIG. 12)): regression of pelvic nodes | analgesic use [7]: decrease in analgesic use was observed | blood plasma levels of androgenic steroids, such as testosterone [8]: declines
